Laboratory results reported in the NIST ThermoML archive (doi:10.1021/je600518s).

Conditions: Liquid, Ebulliometric method (Recirculating still)

COC(C)=O [methyl ethanoate]
Conditions | vapor or sublimation pressure [kPa]
304 K | 37.14
306 K | 40.4
308 K | 43.89
310 K | 47.62
312 K | 51.6
314 K | 55.85
316 K | 60.38
318 K | 65.21
320 K | 70.34
322 K | 75.79
324 K | 81.58
326 K | 87.72
328 K | 94.23
330 K | 101.12
332 K | 108.41
334 K | 116.11
336 K | 124.25
338 K | 132.83
